Measurements as given in patent US8455544B2, “Synthetic triterpenoids and methods of use in the treatment of disease” (Reata Pharmaecuticals, Inc., priority 2008, dated 2013).
Where two headings read alike, the source gives them in different places.

Assays:
[1] = cynomolgus monkey, in vivo, po, 4.1 mg/kg
[2] = system: IFNγ-induced NO production in RAW264.7 macrophages; experiment: Suppression of IFNγ-induced NO production (Griess reagent system); assay type: cell-based; conditions: Mus musculus; RAW264.7, pre-treated 2 hours, then 20 ng/ml IFNγ for 24 hours
RAW264.7 macrophages = experiment: Cell viability, WST-1 reagent; assay type: cell-based; conditions: Mus musculus, RAW264.7 (20 ng/ml IFNγ)
[3] = system: NQO1 in Hepa1c1c7 murine hepatoma cells; conditions: concentration required to induce a two-fold increase in expression of NQO1, Hepa1c1c7 cells; cited from earlier work
[4] = set-up: unit not given here; conditions: six-month, cited from earlier work

Compound	IC50 [2]	IC50 (RAW264.7 macrophages)	NQO1 CD [3]	other results
COC(=O)[C@]12CCC(C)(C)C[C@H]1[C@H]1C(=O)C=C3[C@@]4(C)C=C(C#N)C(=O)C(C)(C)[C@@H]4CC[C@@]3(C)[C@]1(C)CC2 [Form B]	–	–	–	Bioavailability compared with Form A [1]: higher
CC1(C)CC[C@]2(C(=O)O)CC[C@]3(C)[C@H](C(=O)C=C4[C@@]5(C)C=C(C#N)C(=O)C(C)(C)[C@@H]5CC[C@]43C)[C@@H]2C1 [RTA 401, 2-cyano-3,12-dioxooleane-1,9(11)-dien-28-oic acid]	~10 nM	> 200 nM	2.3 nM	–
CC1(C)CC[C@]2(C(=O)n3ccnc3)CC[C@]3(C)[C@H](C(=O)C=C4[C@@]5(C)C=C(C#N)C(=O)C(C)(C)[C@@H]5CC[C@]43C)[C@@H]2C1 [RTA 403]	~0.6 nM	100 nM	3.3 nM	–
CC1(C)CC[C@]2(C(=O)NCC(F)(F)F)CC[C@]3(C)[C@H](C(=O)C=C4[C@@]5(C)C=C(C#N)C(=O)C(C)(C)[C@@H]5CC[C@]43C)[C@@H]2C1 [RTA 404]	5.8 nM	100 nM	–	–
CCNC(=O)[C@]12CCC(C)(C)C[C@H]1[C@H]1C(=O)C=C3[C@@]4(C)C=C(C#N)C(=O)C(C)(C)[C@@H]4CC[C@@]3(C)[C@]1(C)CC2 [RTA 405]	6 nM	~200 nM	–	–
N[C@@H](CC(=O)N1CCn2c(nnc2C(F)(F)F)C1)Cc1cc(F)c(F)cc1F [Sitagliptin]	–	–	–	Change (Hemoglobin A1c) ([4]; +/− metformin with A1c ≧ 7.5, mean A1c 8.9, duration of DM 4.4 years): −0.7; Change (Hemoglobin A1c) ([4]; +/− placebo with A1c ≧ 7.0, mean A1c 8.0, duration of DM 4.3 years): −0.8; Change (Hemoglobin A1c) ([4]; pioglitazone +/− sitagliptin, A1c ≧ 7.0, mean A1c 8.1, duration of DM 6.1 years): −0.7
CC1(C)CC[C@]2(C#N)CC[C@]3(C)[C@H](C(=O)C=C4[C@@]5(C)C=C(C#N)C(=O)C(C)(C)[C@@H]5CC[C@]43C)[C@@H]2C1 [TP-225]	~0.4 nM	75 nM	0.28 nM	–
Pramlintide acetate	–	–	–	Change (Hemoglobin A1c) ([4]; +/− insulin, mean A1c 9.1, duration of DM 13 years): −0.4
